From PMC7377474, “Preclinical characterization of CPL302-253, a selective inhibitor of PI3Kδ, as the candidate for the inhalatory treatment and prevention of Asthma” (PLoS ONE, 2020)
Several values for one entry are separate records, joined by “and”; a condition that tells them apart may be missing. Equal values may be shown once.

Tests used:
neutrophils = experiment: Neutrophil ROS production; assay type: cell-based, human
Protocol: Neutrophils were isolated using EasySep Direct Human Neutrophil Isolation Kit (StemCell Technologies) from fresh whole blood of healthy donors according to manufacturer’s protocol. Cells were cultured in AIM V medium (Gibco). Cells were loaded for 30 min at 37°C in humidified incubator in the presence of 5% CO2 with DCFDA (2’,7’–dichlorofluorescein diacetate), a fluorescent ROS indicator. Subsequently neutrophils were treated for 15 min with CPL302-253 and dexamethasone. In the next step 20 ng/ml of human GM-CSF (StemCell Technologies) was added to prime cells. 15 min later 1 μg/ml LPS from E. coli O55:B5 (Sigma-Aldrich) was added to induce ROS generation. The ROS accumulation in the neutrophils was assessed on FACSCalibur 2 h after LPS stimulation.

PI3Kα = PI3Kα (Homo sapiens, UniProt P42336); experiment: ADP-Glo Kinase Assay; assay type: biochemical; parameters: purchased Merck Millipore
Chain of PI3Kα (P42336 whole entry): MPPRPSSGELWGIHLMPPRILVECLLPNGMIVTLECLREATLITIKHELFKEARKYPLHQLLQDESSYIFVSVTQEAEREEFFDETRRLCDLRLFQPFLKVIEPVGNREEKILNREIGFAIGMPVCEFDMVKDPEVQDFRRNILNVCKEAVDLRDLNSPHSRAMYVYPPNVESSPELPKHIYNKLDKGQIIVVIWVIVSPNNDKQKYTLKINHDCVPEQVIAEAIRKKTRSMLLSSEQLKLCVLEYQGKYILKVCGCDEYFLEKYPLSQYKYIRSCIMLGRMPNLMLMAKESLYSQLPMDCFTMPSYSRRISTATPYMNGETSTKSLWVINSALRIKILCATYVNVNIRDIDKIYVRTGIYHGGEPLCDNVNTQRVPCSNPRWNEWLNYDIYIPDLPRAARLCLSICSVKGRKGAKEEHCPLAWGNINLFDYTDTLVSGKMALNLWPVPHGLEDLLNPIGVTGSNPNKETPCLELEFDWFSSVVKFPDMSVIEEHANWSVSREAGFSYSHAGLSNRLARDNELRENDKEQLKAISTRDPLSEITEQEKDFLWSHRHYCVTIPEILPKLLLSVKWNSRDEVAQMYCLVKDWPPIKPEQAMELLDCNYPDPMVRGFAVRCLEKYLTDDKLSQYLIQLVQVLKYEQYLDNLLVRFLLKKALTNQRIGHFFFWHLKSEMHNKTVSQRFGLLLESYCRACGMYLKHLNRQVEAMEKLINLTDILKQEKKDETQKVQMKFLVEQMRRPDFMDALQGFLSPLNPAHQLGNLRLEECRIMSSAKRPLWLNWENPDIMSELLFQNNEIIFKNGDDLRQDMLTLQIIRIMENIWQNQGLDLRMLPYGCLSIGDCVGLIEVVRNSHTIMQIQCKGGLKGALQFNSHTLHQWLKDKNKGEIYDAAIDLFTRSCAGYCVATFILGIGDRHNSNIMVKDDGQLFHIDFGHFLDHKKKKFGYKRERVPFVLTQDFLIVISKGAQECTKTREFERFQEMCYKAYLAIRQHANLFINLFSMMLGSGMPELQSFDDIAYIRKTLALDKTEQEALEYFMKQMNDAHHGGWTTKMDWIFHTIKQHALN
Chain of PI3Kα (P27986 whole entry partner): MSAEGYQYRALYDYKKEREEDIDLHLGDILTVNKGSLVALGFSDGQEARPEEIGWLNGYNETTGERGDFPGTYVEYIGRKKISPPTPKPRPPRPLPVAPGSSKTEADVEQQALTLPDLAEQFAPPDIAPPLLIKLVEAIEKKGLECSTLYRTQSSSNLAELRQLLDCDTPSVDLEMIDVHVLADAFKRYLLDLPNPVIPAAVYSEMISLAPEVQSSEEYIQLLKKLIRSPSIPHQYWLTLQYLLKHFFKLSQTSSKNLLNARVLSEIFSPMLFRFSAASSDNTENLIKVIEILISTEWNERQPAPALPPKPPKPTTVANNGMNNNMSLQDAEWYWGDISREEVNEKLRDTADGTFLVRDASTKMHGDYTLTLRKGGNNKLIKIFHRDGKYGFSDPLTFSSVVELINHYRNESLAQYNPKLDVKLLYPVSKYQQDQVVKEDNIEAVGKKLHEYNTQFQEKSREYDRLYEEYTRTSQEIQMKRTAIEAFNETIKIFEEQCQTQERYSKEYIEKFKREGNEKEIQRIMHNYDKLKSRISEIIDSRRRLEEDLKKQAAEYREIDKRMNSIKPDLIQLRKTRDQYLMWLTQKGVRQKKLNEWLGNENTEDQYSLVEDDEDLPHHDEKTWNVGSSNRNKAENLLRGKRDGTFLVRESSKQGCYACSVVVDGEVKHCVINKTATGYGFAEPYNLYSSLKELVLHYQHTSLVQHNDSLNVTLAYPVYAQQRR
Protocol: (§1) The potency and selectivity of CPL302-253 against different isotypes of class I PI3K were assessed using ADP-Glo Kinase Assay (Promega) according to manufacturer’s protocol. PI3Kα, PI3Kβ, PI3Kδ, PI3Kγ were purchased from Merck Millipore. The inhibition of examined kinases activity was evaluated by measuring their ability to converse ATP to ADP in the presence of decreasing doses of tested compound (from 400 μM to 0,00004 μM). Kinases were mixed with 1 mM PIP2:PS substrate (Phosphoinositol-4,5-bisphosphate (PIP2) lipid vesicles with phosphoserine (PS), Thermofisher Scientific) and 30 μM ATP in an assay buffer (50 mM HEPES pH 7.5,50 mM NaCl, 3 mM MgCl2, 25 μg/ml BSA). The mixture was incubated in the dark for 1 h at 25°C (PI3Kα and PI3Kδ) or at 30°C (PI3Kβ, PI3Kγ). Next ADP-Glo reagent 1 was added to stop the reaction and remove any remaining ATP. The samples were incubated for 40 min at 25°C. Subsequently the ADP-Glo reagent 2 was added and reactions were incubated for 40 min at 25°C. Finally, luminescence was assessed and the IC50 was calculated.

PI3Kγ = PI3Kγ (Homo sapiens, UniProt P48736); experiment: ADP-Glo Kinase Assay; assay type: biochemical; parameters: purchased Merck Millipore
Chain of PI3Kγ (P48736 whole entry): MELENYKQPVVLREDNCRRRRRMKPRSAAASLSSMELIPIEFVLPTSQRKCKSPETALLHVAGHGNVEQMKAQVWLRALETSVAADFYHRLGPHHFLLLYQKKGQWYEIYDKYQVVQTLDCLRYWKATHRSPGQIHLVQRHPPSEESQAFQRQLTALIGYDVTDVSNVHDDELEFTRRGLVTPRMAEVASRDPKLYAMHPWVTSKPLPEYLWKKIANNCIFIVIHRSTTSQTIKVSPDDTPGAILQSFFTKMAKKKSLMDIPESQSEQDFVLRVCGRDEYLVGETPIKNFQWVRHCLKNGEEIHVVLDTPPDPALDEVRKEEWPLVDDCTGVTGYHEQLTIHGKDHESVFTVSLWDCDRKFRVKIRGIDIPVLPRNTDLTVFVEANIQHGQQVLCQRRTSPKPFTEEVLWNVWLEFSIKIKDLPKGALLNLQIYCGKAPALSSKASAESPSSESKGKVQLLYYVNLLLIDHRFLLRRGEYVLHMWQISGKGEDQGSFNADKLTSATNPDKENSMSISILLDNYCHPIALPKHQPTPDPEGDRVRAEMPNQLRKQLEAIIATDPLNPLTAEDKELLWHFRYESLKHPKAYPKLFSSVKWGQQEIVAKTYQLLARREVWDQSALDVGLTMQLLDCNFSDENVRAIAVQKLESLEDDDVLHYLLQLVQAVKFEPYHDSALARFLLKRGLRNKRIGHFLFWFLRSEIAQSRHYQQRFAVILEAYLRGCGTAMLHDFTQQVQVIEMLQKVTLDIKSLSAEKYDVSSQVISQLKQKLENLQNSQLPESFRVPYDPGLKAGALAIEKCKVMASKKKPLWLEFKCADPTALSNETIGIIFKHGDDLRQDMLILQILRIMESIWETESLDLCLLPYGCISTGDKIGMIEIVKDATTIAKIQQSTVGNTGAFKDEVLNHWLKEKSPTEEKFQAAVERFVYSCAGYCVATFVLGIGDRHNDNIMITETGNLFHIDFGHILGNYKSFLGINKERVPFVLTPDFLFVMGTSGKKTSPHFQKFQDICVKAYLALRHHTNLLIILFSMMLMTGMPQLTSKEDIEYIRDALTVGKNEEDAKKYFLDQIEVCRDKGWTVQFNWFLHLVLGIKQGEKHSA
Protocol: as §1

PI3Kβ = PI3Kβ (Homo sapiens, UniProt P42338); experiment: ADP-Glo Kinase Assay; assay type: biochemical; parameters: purchased Merck Millipore
Chain of PI3Kβ (P42338 whole entry): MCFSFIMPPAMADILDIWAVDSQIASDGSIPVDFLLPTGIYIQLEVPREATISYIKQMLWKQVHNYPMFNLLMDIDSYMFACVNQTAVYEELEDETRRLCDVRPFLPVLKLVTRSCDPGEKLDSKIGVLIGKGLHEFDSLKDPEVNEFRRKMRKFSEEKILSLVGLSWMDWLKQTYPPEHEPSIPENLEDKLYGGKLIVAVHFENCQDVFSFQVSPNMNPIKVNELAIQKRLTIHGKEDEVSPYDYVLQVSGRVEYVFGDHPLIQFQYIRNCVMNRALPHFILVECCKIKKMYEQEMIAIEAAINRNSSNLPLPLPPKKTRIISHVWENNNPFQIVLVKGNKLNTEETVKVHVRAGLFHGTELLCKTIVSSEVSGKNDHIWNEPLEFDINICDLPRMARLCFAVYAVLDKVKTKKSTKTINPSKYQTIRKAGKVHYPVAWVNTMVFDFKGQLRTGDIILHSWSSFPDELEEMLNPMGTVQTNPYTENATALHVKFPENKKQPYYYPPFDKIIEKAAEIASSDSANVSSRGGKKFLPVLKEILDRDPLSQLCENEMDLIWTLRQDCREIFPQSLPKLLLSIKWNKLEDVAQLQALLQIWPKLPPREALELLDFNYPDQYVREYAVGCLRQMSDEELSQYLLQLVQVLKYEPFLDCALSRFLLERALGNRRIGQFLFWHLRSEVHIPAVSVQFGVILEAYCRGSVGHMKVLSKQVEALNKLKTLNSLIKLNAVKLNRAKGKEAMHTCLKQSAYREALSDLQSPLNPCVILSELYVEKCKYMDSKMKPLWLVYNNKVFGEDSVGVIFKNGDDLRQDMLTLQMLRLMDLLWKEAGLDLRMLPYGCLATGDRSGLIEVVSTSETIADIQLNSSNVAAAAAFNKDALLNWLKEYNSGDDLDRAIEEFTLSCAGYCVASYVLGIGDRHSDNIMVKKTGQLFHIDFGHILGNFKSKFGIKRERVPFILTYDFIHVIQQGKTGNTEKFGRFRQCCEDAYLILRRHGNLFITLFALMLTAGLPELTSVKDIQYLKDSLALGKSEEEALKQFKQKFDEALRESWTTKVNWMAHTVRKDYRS
Chain of PI3Kβ (P27986 whole entry partner): as the sequence (P27986 whole entry partner) above
Protocol: as §1

hERG = target: T1, hERG (Homo sapiens, UniProt Q12809); assay type: cell-based; settings: 10 μM
T1 construct: purchased DiscoverX (Eurofins) SafetyScan44
Protocol: SafetyScan44 assay was performed by DiscoverX according to service provider’s protocol.

[1] = tested on: HDM induced asthma mouse model; experiment: HDM-steroid insensitive asthma mice model; settings: for IL-33 concentration in BAL (Fig 7B), single animals / eosinophils number in BAL (Fig 7A), single animals: day 15
[2] = tested on: A549 cells co-cultured with CD8 T cells; experiment: A549 CD8 T cell co-culture, IL-33 expression; assay type: cell-based, human; settings: 1 μM, 72 h
Protocol: A549 cells were seeded into 48-well plate. CD8 T cells were isolated from frozen human PBMC using EasySep Human CD8 T cell Isolation Kit (StemCell Technologies) according to manufacturer’s protocol. A549 were co-cultured with CD8 T cells at 1 to 5 ratios for 72 h. In some cultures, CD8 cells were activated with Human T Cell Activation/Expansion Kit (Miltenyibiotec) according to manufacturer’s protocol. After 72h CD8 cells were removed by rinsing with PBS. Adherent A549 cells were suspended in 100 μl RIPA and IL-33 was assessed in cell lysates using IL-33 Human Uncoated ELISA Kit (Invitrogen). Due to high variability in cell activation the data were normalized (measure for each experimental condition was divided by average of measures for all experimental conditions in the experiment).

[3] = tested on: CD19 B cells and PBMC stimulated with αIgM and TCR ligands; experiment: BioMAP profiling, BT system; assay type: cell-based, human
Protocol: BioMap Profiling study was performed by DiscovereX according to service provider’s protocol. In brief cultures or co-cultures of human primary cells were treated with sets of stimulators specific for cell subsets. […] The expression of biomarkers specific for each system was measured by ELISA and other techniques. The results are shown as log-transformed ratio of the biomarker readouts for the drug-treated sample to vehicle controls. The grey area parallel to the x-axis indicates the 95% significance region calculated based on historical vehicle controls. […]

[4] = HDM + 0.5 mg/kg i.n., 0.5 mg/kg
[5] = i.n. on day 12, 13 and 14, HDM challenge day 14, BALF day 15

In the case of `CC(C)(C)N1CCN(Cc2cc3nc(-c4cncc5[nH]ccc45)cc(N4CCOCC4)n3n2)CC1` [CPL302-253], the “neutrophils stained positively by ROS fluorescent indicator (Fig 4C), single replicates” value (neutrophils; GM-CSF 20 ng/ml and LPS 1 μg/ml, 2 h) is reported as 52 and 10 and 17 and 22 and 2 and 9, the “ROS accumulation in neutrophils” value (neutrophils; GMCSF/LPS stimulation) is reported as “reduced ROS accumulation” and the IC50 (PI3Kα) is reported as 4.52 µM. The “Ratio to δ” value (PI3Kα; IC50 of isoform α to δ) was 371, the IC50 (PI3Kγ) was 45.4 µM and the “Ratio to δ” value (PI3Kγ; IC50 of isoform γ to δ) was 3725. The IC50 (PI3Kβ) was 9.58 µM, the “Ratio to δ” value (PI3Kβ; IC50 of isoform β to δ) was 785 and the “% Response hERG Blocker” value (hERG) was -2.7%. For the same compound, the “IL-33 concentration in BAL (Fig 7B), single animals” value [1, 4] was 1.6 and -0.3 and -1.1 and -0.8 and -4.4 and 3 and 4.4 and -0.4 and -4.7 and 1.7, the “eosinophils number in BAL (Fig 7A), single animals” value [1, 4] was 32736 and 8169.96 and 5712.6 and 6975 and 20671.5 and 48073 and 6811.27 and 9495.5 and 84434.2 and 46844.4 and the “IL-33 concentration in BAL (Fig 7B), single animals” value ([1]; HDM + 5 mg/kg i.n., 5 mg/kg) was 0.5 and 3 and -2.8 and 10.8 and 6.1 and 2.3 and 1 and 2.6 and 9.8. For the same compound, the “eosinophils number in BAL (Fig 7A), single animals” value ([1]; HDM + 5 mg/kg i.n., 5 mg/kg) was 17665.4 and 6769.78 and 17936.5 and 52878.7 and 44238.8 and 8082.51 and 80102.2 and 24189.9 and 38935.1 and 17565.7, the “IL-33 production in the lungs” value [1, 5] was “effectively blocked” and the “eosinophil influx to the lungs” value [1, 5] was “effectively blocked”. The “IL-33 expression, normalized (Fig 3D), single replicates” value ([2]; A549 CD8 A (activated CD8), divided by average of all conditions) was 0.4059 and 0.7122 and 0.4707, the “IL-33 expression in co-cultures” value ([2]; A549 with activated CD8 cells) was “strong inhibition of IL-33 expression” and the “expression of IL-2, IL-6, IL-17 and TNFα in BT system” value [3] was “inhibits the expression of all of listed markers in BT system”. The “proliferation of B cells” value [3] was “blocked proliferation of B cells”.
